US20230293411A1, “BIODEGRADABLE UV ABSORBERS” (BASF SE, priority 2020, published 2023)
Where a name gives a salt, the structure may show the parent alone. Read-outs that look alike come from different tables or passages of the source.

Key:
[1] = Specific extinction coefficient by UV/VIS spectrophotometry in water; format: physicochemical
[2] = Biodegradation, OECD 301F manometric respirometry test; details: inferred from components; the salt itself was not tested
[3] = Absorbance of croconic acid salts in formulation on PMMA plates; format: physicochemical; details: for Absorbance of the formulation: Formulations 1 and 2, 30 mg on PMMA plate, 15 minutes equilibration, 290-400 nm, FIG. 2, compared to Table 1
Procedure: The absorbance of Formulation 1 and 2 was determined as follows: […]
30 mg milligram of product were evenly spread on roughened PMMA plates (Heliosplate SB6, Helioscreen Creil/France) using a presaturated finger cot. After an equilibration time of 15 minutes transmission measurements between 290 and 400 nm were carried out using a spectrophotometer equipped with an integrating sphere (UV Transmittance Analyzer UV1000-S, Labsphere North Sutton/US).

O=c1c([O-])c([O-])c(=O)c1=O.[K+].[K+] [Comp. Compound 2, 4,5-Dihydroxy-4-cyclopentene-1,2,3-trione di-Potassium Salt]
E1, 1 (specific extinction coefficient at λmax) [1]: 1704 | Maximum absorbance wavelength (λmax) [1]: 364 nm

O=c1c(O)c(O)c(=O)c1=O [Compound A, 4,5-Dihydroxy-4-cyclopentene-1,2,3-trione di-triethanolammonium Salt]
E1, 1 (specific extinction coefficient at λmax) [1]: 844 | Maximum absorbance wavelength (λmax) [1]: 364 nm | Biodegradability concluded from croconic acid and triethanolamine [2]: biodegradable | Absorbance of the formulation [3]: within the expected range

O=c1c([O-])c([O-])c(=O)c1=O.[Na+].[Na+] [Comp. Compound 1, 4,5-Dihydroxy-4-cyclopentene-1,2,3-trione di-Sodium Salt]
E1, 1 (specific extinction coefficient at λmax) ([1]; in water, d=1 cm, at λmax): 1996 | Maximum absorbance wavelength (λmax) ([1]; in water, optical pathlength d=1 cm, spectrum 250 nm to 500 nm): 364 nm | Absorbance of the formulation [3]: lower | Crystallization after water evaporation ([3]; in formulation on PMMA plate): crystallization
